The values below come from patent US9464060B2, “Compounds” (TAKEDA PHARMACEUTICAL COMPANY LIMITED, priority 2013, dated 2016).

The target of test [1] is human LPA1 receptors (Homo sapiens (Human), UniProt Q92633). Description: In vitro LPA1 receptor assay (LPA-driven intracellular calcium release, FLIPR). The test is classed as cell-based. The following applies: RH7777 cells expressing human LPA1 receptors; LPA at EC80. The protocol:
In Vitro LPA1 Receptor Assay
Engagement of the LPA1 receptor by its ligand, oleoyl-L-α-lysophosphatidic acid (LPA), leads to the release of intracellular stores of calcium into the cytoplasm mediated through a Gq-driven increase in inositol triphosphate (IP3) levels. Gq is a heterotrimeric G protein subunit that activates phospholipase C.
The ability of test compounds to prevent LPA-driven intracellular release of stored calcium from RH7777 cells expressing human LPA1 receptors was assayed by stimulating the cells with LPA in the presence of various test compounds to measure the test compounds' antagonism, i.e. activity in vitro.
(§1) Approximately 10,000 cells in normal culture medium (Dulbecco's Modified Eagle Media, 10% Foetal Calf Serum) were dispensed per assay well in a black clear bottom collagen coated 384 well plate (Beckton Dickinson). Cells were allowed to settle for thirty minutes at room temperature before being incubated overnight at 37° C., 5% CO2. Sixteen to twenty hours after dispensing, the cells were loaded with a calcium-sensitive fluorescent dye by replacing the culture medium with assay buffer (1× Hanks buffered saline, 25 mM HEPES, 0.1% w/v fatty acid free BSA (bovine serum albumin), pH7.4) containing 1.25 mM probenecid and 1× Calcium 5 Reagent (Molecular Devices). Cells were incubated at 37° C. for one hour to allow for dye uptake.
To test for antagonist activity, test compounds at a final concentration range between 0.32 nM-10 μM (diluted in assay buffer) were added to the assay wells and allowed to incubate for twenty five minutes. […] Ligand-dependent changes in intracellular calcium levels were determined by measuring changes in fluorescence of the dye over […] following excitation over […].
A general note: A change in cytosolic calcium serves as a functional read-out for many receptors and channels.

For test [2], the target named is LPA5 receptor (Homo sapiens (Human), UniProt Q9H1C0). Description: In vitro LPA5 receptor assay (LPA-driven intracellular calcium release, FLIPR). Format: cell-based. To be noted: RH7777 cells expressing human LPA5 receptors; LPA at EC90. The protocol: In Vitro LPA5 Receptor Assay
LPA5 receptor, sequence (Q9H1C0 whole entry): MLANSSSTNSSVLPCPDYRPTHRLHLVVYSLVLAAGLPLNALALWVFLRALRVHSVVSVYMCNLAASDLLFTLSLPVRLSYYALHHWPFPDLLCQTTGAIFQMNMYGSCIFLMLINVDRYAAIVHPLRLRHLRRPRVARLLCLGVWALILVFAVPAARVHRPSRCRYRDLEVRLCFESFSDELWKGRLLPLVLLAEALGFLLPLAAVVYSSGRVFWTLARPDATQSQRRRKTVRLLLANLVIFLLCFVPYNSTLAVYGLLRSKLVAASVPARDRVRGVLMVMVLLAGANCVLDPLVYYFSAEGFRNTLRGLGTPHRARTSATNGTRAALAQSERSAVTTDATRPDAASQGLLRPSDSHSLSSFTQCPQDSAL
Engagement of the LPA5 receptor by its ligand, oleoyl-L-α-lysophosphatidic acid (LPA), leads to the release of intracellular stores of calcium into the cytoplasm mediated through a Gq-driven increase in inositol triphosphate (IP3) levels. Gq is a heterotrimeric G protein subunit that activates phospholipase C.
The ability of test compounds to prevent LPA-driven intracellular release of stored calcium from RH7777 cells expressing human LPA5 receptors was assayed by stimulating the cells with LPA in the presence of various test compounds to measure the test compounds'antagonism, i.e. activity in vitro.
as §1, with “(Minimal Essential” for “(Dulbecco's Modified Eagle”, “poly-D-lysine” for “collagen”, “(Corning).” for “(Beckton Dickinson).”
To test for antagonist activity, test compounds at a final concentration range between 0.32 nM-10 μM (diluted in assay buffer) were added to the assay wells and allowed to incubate for fifteen minutes. […] Ligand-dependent changes in intracellular calcium levels were determined by measuring changes in fluorescence of the dye over […] following excitation over […].

human LPA1 receptors, sequence (Q92633 whole entry): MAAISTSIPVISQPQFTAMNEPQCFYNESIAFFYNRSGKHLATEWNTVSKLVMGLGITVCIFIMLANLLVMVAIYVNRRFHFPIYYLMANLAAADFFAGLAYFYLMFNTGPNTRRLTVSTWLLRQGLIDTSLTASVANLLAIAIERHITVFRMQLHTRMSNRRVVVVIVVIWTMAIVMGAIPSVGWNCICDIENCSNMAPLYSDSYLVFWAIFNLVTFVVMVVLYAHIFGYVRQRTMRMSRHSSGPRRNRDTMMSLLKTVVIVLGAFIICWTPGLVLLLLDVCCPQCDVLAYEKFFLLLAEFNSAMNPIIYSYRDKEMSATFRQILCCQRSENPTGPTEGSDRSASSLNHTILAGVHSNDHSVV

Take `O=C(O)c1ccc(CN(C[C@@H]2C[C@H]2c2ccccc2)C(=O)c2ccc(Oc3ccccc3F)cc2)cc1` (relative stereo) [Example 18, 4-((4-(2-Fluorophenoxy)-N-((trans-2-phenylcyclopropyl)methyl)-benzamido)methyl)benzoic acid]: the IC50 was 1 nM in test [1] and 2 nM in test [2].

Regarding `Cc1cccc(C)c1Oc1ccc(C(=O)N(CCc2ccccc2)Cc2ccc(C(=O)O)cc2)cc1` [Example 47, 4-((4-(2,6-Dimethylphenoxy)-N-phenethylbenzamido)methyl)benzoic acid], the IC50 in test [1] is 22 nM; in test [2], 11 nM.

Consider `CCCN(Cc1ccc(C(=O)O)cc1)C(=O)c1ccc(Oc2ccc(F)cc2OC)cc1` [Example 80, 4-((4-(4-Fluoro-2-methoxyphenoxy)-N-propylbenzamido)methyl)benzoic acid], for which the IC50 in test [1] was 110 nM; in test [2], 45 nM.

As for `CCN(Cc1ccc(C(=O)O)cc1)C(=O)c1ccc(Oc2ccccc2C)cc1` [Example 73, 4-((N-Ethyl-4-(o-tolyloxy)benzamido)methyl)benzoic acid], the IC50 was 120 nM in test [1] and 890 nM in test [2].

As to `CCCN(Cc1ccc(C(=O)O)cc1)C(=O)c1ccc(Oc2ccccc2F)cc1` [Example 60, 4-((4-(2-Fluorophenoxy)-N-propylbenzamido)methyl)benzoic acid], the results for the IC50 in test [1] and in test [2] were 33 nM and 60 nM, respectively.

In the case of `O=C(O)c1ccc(CN(CCC2CC2)C(=O)c2ccc(Oc3c(F)cccc3F)cc2)cc1` [Example 38, 4-((N-(2-Cyclopropylethyl)-4-(2,6-difluorophenoxy)benzamido)-methyl)benzoic acid], the IC50 in test [1] stood at 36 nM; in test [2], 140 nM.

For the molecule `Cc1ccccc1Oc1ccc(C(=O)N(Cc2ccc(C(=O)O)cc2)CC(F)(F)F)cc1` [Example 70, 4-((4-(o-Tolyloxy)-N-(2,2,2-trifluoroethyl)benzamido)methyl)benzoic acid], the IC50 amounted to 47 nM in test [1] and 140 nM in test [2].

`Cc1cccc(C)c1Oc1ccc(C(=O)N(CCC(C)C)Cc2ccc(C(=O)O)cc2)cc1` [Example 45, 4-((4-(2,6-Dimethylphenoxy)-N-isopentylbenzamido)methyl)benzoic acid]: the figures for the IC50 in test [1] and in test [2] were 75 nM and 99 nM, respectively.

As to `COc1ccccc1Oc1ccc(C(=O)N(Cc2ccc(C(=O)O)cc2)CC(C)(F)F)cc1` [Example 63, 4-((N-(2,2-Difluoropropyl)-4-(2-methoxyphenoxy)-benzamido)methyl)benzoic acid], the IC50 in test [1] is 7 nM; in test [2], 10 nM.

`COc1ccccc1Oc1ccc(C(=O)N(Cc2ccc(C(=O)O)cc2)CC(F)F)cc1` [Example 29, 4-((N-(2,2-Difluoroethyl)-4-(2-methoxyphenoxy)benzamido)-methyl)benzoic acid]: the IC50 in test [1] came out at 34 nM; in test [2] it was 43 nM.

As to `CCCCN(Cc1ccc(C(=O)O)cc1)C(=O)c1ccc(Oc2ccccc2OC)cc1` [Example 65, 4-((N-Butyl-4-(2-methoxyphenoxy)benzamido)methyl)benzoic acid], the results for the IC50 in test [1] and in test [2] were 5 nM and 4 nM, respectively.

With `Cc1cccc(C)c1Oc1ccc(C(=O)N(Cc2ccccc2)Cc2ccc(C(=O)O)cc2)cc1` [Example 46, 4-((N-Benzyl-4-(2,6-dimethylphenoxy)benzamido)methyl)benzoic acid], the figures for the IC50 in test [1] and in test [2] were 19 nM and 17 nM, respectively.

As to `O=C(O)c1ccc(CN(CC2CC2)C(=O)c2ccc(Oc3ccccc3F)cn2)cc1` [Example 77, 4-((N-(Cyclopropylmethyl)-5-(2-fluorophenoxy)picolinamido)methyl)benzoic acid], the IC50 in test [1] is 86 nM; in test [2], 74 nM.

On to `COc1cccc(CN(Cc2ccc(C(=O)O)cc2)C(=O)c2ccc(Oc3ccccc3F)cc2)c1` [Example 13, 4-((4-(2-Fluorophenoxy)-N-(3-methoxybenzyl)benzamido)-methyl)benzoic acid], for which the IC50 in test [1] came out at 4 nM; in test [2], 3 nM.

`CCCN(Cc1ccc(C(=O)O)cc1)C(=O)c1ncc(Oc2ccccc2OC)cn1` [Example 85, 4-((5-(2-Methoxyphenoxy)-N-propylpyrimidine-2-carboxamido)methyl)benzoic acid]: the IC50 came out at 180 nM in test [1] and 120 nM in test [2].

Regarding `COc1ccccc1Oc1ccc(C(=O)N(Cc2ccc(C(=O)O)cc2)CC2CC2)c(F)c1` [Example 66, 4-((N-(Cyclopropylmethyl)-2-fluoro-4-(2-methoxyphenoxy)benzamido)methyl)benzoic acid], the IC50 is 7 nM in test [1] and 5 nM in test [2].

As for `COc1ccccc1Oc1ccc(C(=O)N(Cc2ccc(C(=O)O)cc2)CC2CC2)nc1` [Example 69, 4-((N-(Cyclopropylmethyl)-5-(2-methoxyphenoxy)-picolinamido)methyl)benzoic acid], the IC50 in test [1] stood at 12 nM; in test [2], 8 nM.

Turning to `COc1ccccc1Oc1ccc(C(=O)N(Cc2ccc(C(=O)O)cc2)CC(F)(F)F)cc1` [Example 61, 4-((4-(2-Methoxyphenoxy)-N-(2,2,2-trifluoroethyl)benzamido)methyl)benzoic acid], the IC50 in test [1] is 4 nM; in test [2], 8 nM.

Regarding `Cc1ccccc1Oc1ccc(C(=O)N(Cc2ccc(C(=O)O)cc2)CC2CC2)cc1` [Example 22, 4-((N-(Cyclopropylmethyl)-4-(o-tolyloxy)benzamido)methyl)benzoic acid], the IC50 worked out at 30 nM in test [1] and 24 nM in test [2].

With `O=C(O)c1ccc(CN(C[C@@H](O)Cc2ccccc2)C(=O)c2ccc(Oc3ccccc3F)cc2)cc1` [Example 19, (S)-4-((4-(2-Fluorophenoxy)-N-(2-hydroxy-3-phenylpropyl)benzamido)methyl)benzoic acid], the IC50 in test [1] was 7 nM; in test [2] it was 9 nM.

In the case of `O=C(O)c1ccc(CN(CC(F)(F)F)C(=O)c2ccc(Oc3ccccc3F)cc2)cc1` [Example 3, 4-((4-(2-Fluorophenoxy)-N-(2,2,2-trifluoroethyl)benzamido)-methyl)benzoic acid], the IC50 in test [1] is 35 nM; in test [2] it was 43 nM.

`COc1ccccc1Oc1ccc(C(=O)N(Cc2ccc(C(=O)O)cc2)CC2CC2)cc1` [Example 31, 4-((N-(Cyclopropylmethyl)-4-(2-methoxyphenoxy)benzamido)-methyl)benzoic acid]: the values for the half-inhibitory concentration (IC50) in test [1] and in test [2] were 4 nM and 5 nM, respectively.

For `COc1ccccc1Oc1ccc(C(=O)N(CCCc2cccc(F)c2)Cc2ccc(C(=O)O)cc2)cc1` [Example 33, 4-((N-(3-(3-Fluorophenyl)propyl)-4-(2-methoxyphenoxy)-benzamido)methyl)benzoic acid], the IC50 in test [1] was determined as 0.3 nM; in test [2], 0.4 nM.

In the case of `O=C(O)c1ccc(CN(CC(F)(F)F)C(=O)c2ccc(Oc3ccccc3Cl)cc2)cc1` [Example 72, 4-((4-(2-Chlorophenoxy)-N-(2,2,2-trifluoroethyl)benzamido)methyl)benzoic acid], the IC50 stood at 29 nM in test [1] and 42 nM in test [2].

In the case of `COc1cccc(F)c1Oc1ccc(C(=O)N(Cc2ccc(C(=O)O)cc2)CC2CC2)cc1` [Example 67, 4-((N-(Cyclopropylmethyl)-4-(2-fluoro-6-methoxyphenoxy)benzamido)methyl)benzoic acid], the IC50 worked out at 7 nM in test [1] and 5 nM in test [2].

Take `COc1ccccc1Oc1ccc(C(=O)N(CCCc2ccccc2)Cc2ccc(C(=O)O)cc2)cc1` [Example 32, 4-((4-(2-Methoxyphenoxy)-N-(3-phenylpropyl)benzamido)-methyl)benzoic acid]: the 50% inhibitory concentration (IC50) in test [1] turned out to be 2 nM; in test [2], 0.4 nM.

`Cc1ccccc1Oc1ccc(C(=O)N(CCc2ccccc2)Cc2ccc(C(=O)O)cc2)cc1` [Example 25, 4-((N-Phenethyl-4-(o-tolyloxy)benzamido)methyl)benzoic acid]: the IC50 in test [1] worked out at 14 nM; in test [2] it was 29 nM.

The IC50 is the concentration that inhibits the measured activity by half.
